This note sets out measurements from US8288552B2, “Dihydropyridone amidesas P2X7 modulators” (Roche Palo Alto LLC, priority 2008, dated 2012).

The structures appear in SMILES notation.

In the assay the target is T1, P2X7 (UniProt Q99572).
T1 sequence (Q99572 1-595): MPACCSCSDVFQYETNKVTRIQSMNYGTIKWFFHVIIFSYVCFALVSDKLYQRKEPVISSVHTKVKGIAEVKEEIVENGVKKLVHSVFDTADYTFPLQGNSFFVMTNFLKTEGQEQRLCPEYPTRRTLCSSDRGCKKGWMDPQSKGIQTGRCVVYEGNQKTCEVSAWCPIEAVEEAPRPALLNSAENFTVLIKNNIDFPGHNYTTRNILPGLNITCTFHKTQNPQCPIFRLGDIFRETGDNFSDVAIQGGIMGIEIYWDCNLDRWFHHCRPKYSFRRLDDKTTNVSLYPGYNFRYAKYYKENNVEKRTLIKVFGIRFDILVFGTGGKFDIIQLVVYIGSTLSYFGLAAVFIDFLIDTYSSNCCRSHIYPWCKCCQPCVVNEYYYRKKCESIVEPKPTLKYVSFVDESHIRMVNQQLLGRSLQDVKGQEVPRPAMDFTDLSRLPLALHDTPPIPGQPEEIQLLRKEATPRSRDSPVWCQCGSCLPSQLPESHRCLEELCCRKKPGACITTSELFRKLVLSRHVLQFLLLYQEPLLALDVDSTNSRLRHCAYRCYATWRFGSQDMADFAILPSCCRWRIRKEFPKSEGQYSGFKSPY
The experiment in a line: P2X7 pKi of Table 1. The format is cell-based. The procedure: Intracellular Calcium Flux (FLIPR) Assay
Compound and Reagent Preparation
Stock solutions of compounds were prepared from powders as a 10 mM DMSO stock solution. These solutions were stored at RT during the two week period of these experiments to prevent freeze-thaw of the DMSO stocks. The DMSO stocks were added to the appropriate assay buffer at a concentration of 10 μM, and then diluted serially to the final concentrations that were tested. […] The aqueous solutions of compounds as well as ATP (Sigma A7699) and BzATP (Sigma B6396) were prepared fresh for each day of experiment.
1321N1 cells stably expressing the full length human P2X7 gene (1321N1-hP2X7) and HEK293 cells stably expressing the full length rat P2X7 gene (HEK293-rP2X7) were obtained from the Roche Cell Culture Facility. 1321N1-hP2X7 cells were grown in Dulbecco's Modified Eagle's Medium (DMEM) high glucose supplemented with 10% FBS and 250 μg/mL G418. HEK293-rP2X7 cells were grown in DMEM/F-12 supplemented with 10% FBS, 1 mM CaCl2, 2 mM MgCl2, 2 mM L-Glutamine and 500 μg/ml G418. Cells were split such that they never became >70% confluent.
Intracellular Calcium Flux (FLIPR)
On the day prior to the experiment, 1321N1-hP2X7 or HEK293-rP2X7 cells were released into suspension with calcium-free PBS+Versene and washed by centrifugation with calcium-free PBS to remove the Versene. Cells were resuspended in growth medium at a density of 2.5×10^5 cells/mL and seeded into black walled, clear bottom 96 well plates (50,000 cells/well) approximately 18 hr prior to intracellular calcium flux experiments.
On the day of the experiment, plates were washed with FLIPR buffer (calcium- and magnesium-free Hank's Balanced Salt Solution (HBSS) supplemented with 10 mM Hepes, 2.5 mM probenecid and 2 mM calcium chloride) using a BIO-TEK 96 channel plate washer and incubated with […] fluo-3 dye at 37° C. for one hr. The dye was then removed by plate washing and the cells were allowed to equilibrate for 20 min at room temperature with antagonist or vehicle (FLIPR buffer). Agonist (100 μM BzATP final concentration for hP2X7; 5 μM BzATP final concentration or rP2X7) was added online with the FLIPR and fluorescence measurements made at 1 sec intervals for 60 sec followed by 3 sec intervals for a further 4 min (5 min total). A final addition of 5 μM ionomycin was made and the maximal BzATP-evoked fluorescence normalized to the maximal ionomycin-evoked fluorescence.
In the case of `CC(=O)COc1cc(NC(=O)C2=CNC(=O)C[C@H]2c2cccc(F)c2)c(C)cc1F` [Compound 85, (S)-4-(3-Fluoro-phenyl)-6-oxo-1,4,5,6-tetrahydro-pyridine-3-carboxylic acid[4-fluoro-2-methyl-5-(2-oxo-propoxy)-phenyl]-amide], the negative-log Ki (pKi) is reported as 6.705.

Molecule `Cc1ccc(C(F)(F)F)cc1NC(=O)C1=CNC(=O)CC1c1cccc(F)c1` (stereo not drawn) [Compound 50, 4-(3-Fluoro-phenyl)-6-oxo-1,4,5,6-tetrahydro-pyridine-3-carboxylic acid(2-methyl-5-trifluoromethyl-phenyl)-amide] showed a pKi of 6.89.

In turn, `Cc1ccc(C)c(NC(=O)C2=CNC(=O)C[C@@H]2c2ccc(F)cc2)c1` [Compound 55, (R)-4-(4-Fluoro-phenyl)-6-oxo-1,4,5,6-tetrahydro-pyridine-3-carboxylic acid (2,5-dimethyl-phenyl)-amide] came in with a pKi of 7.535.

For the molecule `CCc1cc(Cl)c(OC)cc1NC(=O)C1=CNC(=O)C[C@H]1c1ccc(F)cc1` [Compound 118, (S)-4-(4-Fluoro-phenyl)-6-oxo-1,4,5,6-tetrahydro-pyridine-3-carboxylic acid(4-chloro-2-ethyl-5-methoxy-phenyl)-amide], the pKi is reported as 7.075.

Molecule `COc1cc(C)c(NC(=O)C2=CNC(=O)C[C@H]2c2cccc(F)c2)cc1OC` [Compound 48, (S)-4-(3-Fluoro-phenyl)-6-oxo-1,4,5,6-tetrahydro-pyridine-3-carboxylic acid (4,5-dimethoxy-2-methyl-phenyl)-amide] showed a pKi of 7.7225.

In the case of `CC(=O)Nc1ccc(Cl)c(NC(=O)C2=CNC(=O)CC2c2cccc(F)c2)c1` (stereo not drawn) [Compound 21, 4-(3-Fluoro-phenyl)-6-oxo-1,4,5,6-tetrahydro-pyridine-3-carboxylic acid(5-acetylamino-2-chloro-phenyl)-amide], the pKi is given as 6.02.

In the case of `COc1cc(Br)c(NC(=O)C2=CNC(=O)C[C@H]2c2cccc(F)c2)cc1OC` [Compound 30, (S)-4-(3-Fluoro-phenyl)-6-oxo-1,4,5,6-tetrahydro-pyridine-3-carboxylic acid(2-bromo-4,5-dimethoxy-phenyl)-amide], the negative logarithm of the Ki (pKi) came out at 8.045.

As for `COc1cc(Br)c(NC(=O)C2=CN(C)C(=O)CC2c2ccc(F)cc2)cc1OC` (stereo not drawn) [Compound 31, 4-(4-Fluoro-phenyl)-1-methyl-6-oxo-1,4,5,6-tetrahydro-pyridine-3-carboxylic acid(2-bromo-4,5-dimethoxy-phenyl)-amide], the pKi was determined as 6.525.

Turning to `COc1ccc(C)c(NC(=O)C2=CNC(=O)CC2c2cccc(F)c2)c1` (stereo not drawn) [Compound 20, 4-(3-Fluoro-phenyl)-6-oxo-1,4,5,6-tetrahydro-pyridine-3-carboxylic acid(5-methoxy-2-methyl-phenyl)-amide], the pKi is 6.815.

`COc1cc(NC(=O)C2=CNC(=O)CC2c2ccc(F)cc2)c(C)cc1F` (stereo not drawn) [Compound 54, 4-(4-Fluoro-phenyl)-6-oxo-1,4,5,6-tetrahydro-pyridine-3-carboxylic acid(4-fluoro-5-methoxy-2-methyl-phenyl)-amide] gave a pKi of 7.02.

Consider `COc1cc(NC(=O)C2=CNC(=O)CC2c2ccc(F)cc2)c(Br)cc1C` (stereo not drawn) [Compound 4, 4-(4-Fluoro-phenyl)-6-oxo-1,4,5,6-tetrahydro-pyridine-3-carboxylic acid(2-bromo-5-methoxy-4-methyl-phenyl)-amide], for which the pKi was found to be 6.6.

The molecule `COc1ccc(C)c(NC(=O)C2=CNC(=O)C[C@H]2c2cccc(F)c2)c1` [Compound 46, (S)-4-(3-Fluoro-phenyl)-6-oxo-1,4,5,6-tetrahydro-pyridine-3-carboxylic acid(5-methoxy-2-methyl-phenyl)-amide] came in with a pKi of 7.695.

Molecule `COC(=O)c1ccc(C)c(NC(=O)C2=CNC(=O)CC2c2cccc(F)c2)c1` (stereo not drawn) [Compound 16, 3-{[4-(3-Fluoro-phenyl)-6-oxo-1,4,5,6-tetrahydro-pyridine-3-carbonyl]-amino}-4-methyl-benzoic acid methyl ester] registered a pKi of 6.43.

`O=C1CC(c2ccc(F)cc2)C(C(=O)Nc2cc3c(cc2Br)OCCO3)=CN1` (stereo not drawn) [Compound 138, 4-(4-Fluoro-phenyl)-6-oxo-1,4,5,6-tetrahydro-pyridine-3-carboxylic acid(7-bromo-2,3-dihydro-benzo[1,4]dioxin-6-yl)-amide] yielded a pKi of 6.69.

Consider `COc1cc(C)c(NC(=O)C2=CNC(=O)C[C@@H]2c2ccc(Cl)cc2)cc1OC` [Compound 132, (R)-4-(4-Chloro-phenyl)-6-oxo-1,4,5,6-tetrahydro-pyridine-3-carboxylic acid (4,5-dimethoxy-2-methyl-phenyl)-amide], for which the negative logarithm of the Ki (pKi) was 6.38.

`CCOc1cc(NC(=O)C2=CNC(=O)CC2c2cccc(F)c2)c(C)cc1Cl` (stereo not drawn) [Compound 70, 4-(3-Fluoro-phenyl)-6-oxo-1,4,5,6-tetrahydro-pyridine-3-carboxylic acid(4-chloro-5-ethoxy-2-methyl-phenyl)-amide] showed a pKi of 7.425.

`Cc1cc(Cl)c(OCC(C)O)cc1NC(=O)C1=CNC(=O)C[C@H]1c1cccc(F)c1` (stereo partly drawn) [Compound 117, (S)-4-(3-Fluoro-phenyl)-6-oxo-1,4,5,6-tetrahydro-pyridine-3-carboxylic acid[4-chloro-5-(2-hydroxy-propoxy)-2-methyl-phenyl]-amide] registered a negative-log Ki (pKi) of 7.06.

Regarding `Cc1cccc(NC(=O)C2=CNC(=O)C[C@@H]2c2ccc(F)cc2)c1C` [Compound 57, (R)-4-(4-Fluoro-phenyl)-6-oxo-1,4,5,6-tetrahydro-pyridine-3-carboxylic acid (2,3-dimethyl-phenyl)-amide], the pKi worked out at 7.405.

The molecule `COc1cc(C)c(NC(=O)C2=C(C)NC(=O)CC2c2ccc(C(F)(F)F)cc2)cc1OC` (stereo not drawn) [Compound 127, 2-Methyl-6-oxo-4-(4-trifluoromethyl-phenyl)-1,4,5,6-tetrahydro-pyridine-3-carboxylic acid(4,5-dimethoxy-2-methyl-phenyl)-amide] yielded a negative-log Ki (pKi) of 5.055.

`COC[C@@H](O)COc1cc(NC(=O)C2=CN(C)C(=O)C[C@H]2c2ccc(F)cc2)c(C)cc1Cl` [Compound 147, (S)-4-(4-Fluoro-phenyl)-1-methyl-6-oxo-1,4,5,6-tetrahydro-pyridine-3-carboxylic acid[4-chloro-5-((S)-2-hydroxy-3-methoxy-propoxy)-2-methyl-phenyl]-amide] showed a pKi of 5.85.

In the case of `COc1cc(NC(=O)C2=CNC(=O)CC2c2ccc(F)cc2)c(Br)cc1Cl` (stereo not drawn) [Compound 6, 4-(4-Fluoro-phenyl)-6-oxo-1,4,5,6-tetrahydro-pyridine-3-carboxylic acid(2-bromo-4-chloro-5-methoxy-phenyl)-amide], the pKi came to 6.166.

As to `Cc1c(CO)cccc1NC(=O)C1=CNC(=O)C[C@@H]1c1ccc(F)cc1` [Compound 107, (R)-4-(4-Fluoro-phenyl)-6-oxo-1,4,5,6-tetrahydro-pyridine-3-carboxylic acid(3-hydroxymethyl-2-methyl-phenyl)-amide], the pKi stood at 5.36.

As for `COc1cc(NC(=O)C2=CNC(=O)CC2c2cccc(F)c2)c(Br)cc1F` (stereo not drawn) [Compound 35, 4-(3-Fluoro-phenyl)-6-oxo-1,4,5,6-tetrahydro-pyridine-3-carboxylic acid(2-bromo-4-fluoro-5-methoxy-phenyl)-amide], the negative-log Ki (pKi) came out at 6.65.

For the molecule `COc1ccc(C)c(NC(=O)C2=CNC(=O)C[C@@H]2c2cccc(F)c2)c1` [Compound 45, (R)-4-(3-Fluoro-phenyl)-6-oxo-1,4,5,6-tetrahydro-pyridine-3-carboxylic acid(5-methoxy-2-methyl-phenyl)-amide], the pKi was 6.765.
